Assay results: US20220402935A1, “HETEROCYCLIC COMPOUND” (FIMECS, INC., priority 2019, published 2022)
Counter-ions that a name gives are not always drawn.

Columns and labels:
[1] = biological target: T1, IRAK-M (Homo sapiens, UniProt Q9Y616); assay: In vitro degradation activity of target protein (IRAK-M ELISA in THP1 cells); type: cell-based; parameters: host or cells: THP1 cells; conditions: 24 hours, second symbol of cell, read-out: IRAK-M 50% degradation concentration (DC50 value)
T1 sequence (Q9Y616 1-596): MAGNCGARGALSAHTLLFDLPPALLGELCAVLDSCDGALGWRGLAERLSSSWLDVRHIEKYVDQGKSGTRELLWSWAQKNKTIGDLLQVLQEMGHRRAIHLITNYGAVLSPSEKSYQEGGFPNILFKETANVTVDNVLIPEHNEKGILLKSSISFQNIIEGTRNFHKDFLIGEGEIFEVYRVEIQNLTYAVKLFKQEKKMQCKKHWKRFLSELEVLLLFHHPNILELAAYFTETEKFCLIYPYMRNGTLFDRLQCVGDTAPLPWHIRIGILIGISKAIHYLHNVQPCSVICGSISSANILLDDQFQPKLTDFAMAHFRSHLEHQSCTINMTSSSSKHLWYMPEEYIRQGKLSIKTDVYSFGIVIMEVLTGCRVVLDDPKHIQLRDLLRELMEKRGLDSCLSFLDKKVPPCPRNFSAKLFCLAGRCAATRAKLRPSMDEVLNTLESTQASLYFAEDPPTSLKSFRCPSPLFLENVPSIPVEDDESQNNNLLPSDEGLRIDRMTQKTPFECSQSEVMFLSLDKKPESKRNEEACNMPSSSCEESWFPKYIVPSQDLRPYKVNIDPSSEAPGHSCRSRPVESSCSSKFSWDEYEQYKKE
Experimental: In vitro degradation activities of target protein of the example compounds were evaluated using Enzyme-linked immuno-sorbent assay (ELISA) by the following assay steps. THP1 cells (ATCC, TIB-202) were cultured in RPMI-1640 supplemented with 10% FBS, lx sodium pyruvate, lx HEPES, D-(+)-glucose and 1% penicillin/streptomycin. THP1 cells were seeded at a density of 1×10^6 cells/well in 24-well plate and treated with DMSO control or test compound, and then incubated for 24 hours. The cells were collected and lysed on ice for 30 minutes in lysis buffer (PBS containing 0.1% Triton X-100) containing a protease inhibitor cocktail (Roche, Cat #11836170001). The lysates were sonicated for 30 sec ON/30 sec OFF for ten cycles and centrifuged for 10 minutes at 13k rpm at 4° C. Protein concentrations were determined by the BCA assay (Sigma, Cat #QPBCA-1KT). The ELISA assay was performed using the Human IRAK3/IRAKM/IRAK-M ELISA Kit (LifeSpan BioSciences, Cat #LS-F35271), and the protein levels of IRAK-M were evaluated according to the kit protocol. As to the IRAK-M degradation rate of test compounds, protein degradation rate (%) when the concentration of the test compound is […] described as A≥75%, 50%≤B<75%, 25%≤C<50%, D<25%, or 50% degradation concentration (DC50 value) described as A<0.03 μM, 0.03 μM≤B<0.1 μM, 0.1 μM≤C<0.3 μM, 0.3 μM≤D<1 μM, is shown in the table below.

[2] = biological target: T2, human XIAP_BIR3 domain purified protein (Homo sapiens, UniProt P98170); assay: XIAP binding inhibitory activity (HTRF, b-Smac ligand); conditions: second symbol of cell; read-out: XIAP binding inhibition IC50 value
T2 construct: purchased R & D
T2 sequence (P98170 252-356 limits assumed): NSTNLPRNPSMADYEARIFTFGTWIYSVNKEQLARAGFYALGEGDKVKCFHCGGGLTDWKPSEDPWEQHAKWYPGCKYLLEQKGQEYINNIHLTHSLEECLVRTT
Outline: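 HTRF competition between compound and C-terminally biotinylated Smac peptide AVPIAQK for His-tagged XIAP BIR3, both diluted to 90 nM before addition, in pH 7.5 HEPES/NaCl/BSA/Triton buffer. Eu-cryptate anti-His and streptavidin-XL665 added, ≥4 h at room temperature in the dark; inhibition % from 665/615 nm ratio versus no-compound wells.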

[3] = biological target: T1, IRAK-M; assay: IRAK-M binding inhibitory activity (KINOMEscan active site-dependent competitive assay); parameters: purchased Eurofins Discover X; conditions: for remaining binding at 1 µM: concentration of the test compound 1 μM, first symbol of cell, read-out: IRAK-M binding inhibition activity % Ctrl
Outline: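 Readout given as % Ctrl, with DMSO as 100% and a control compound as 0%, scaling the test compound signal between them. Binding to human IRAK-M was assessed by KINOMEscan competition at the kinase active site.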

Which results are given for CN[C@@H](C)C(=O)N[C@H](C(=O)N1CCN(C(=O)c2cc3cc(F)c(F)cc3n2CC(=O)N2CCC[C@H]2COc2cc(CN3CCC(Oc4ccnc5ccsc45)CC3)on2)CC1)C1CCCCC1 [Example 25, (S)-N-((S)-1-Cyclohexyl-2-(4-(5,6-difluoro-1-(2-oxo-2-((S)-2-(((5-((4-(thieno[3,2-b]pyridin-7-yloxy)piperidin-1-yl)methyl)isoxazol-3-yl)oxy)methyl)pyrrolidin-1-yl)ethyl)-1H-indole-2-carbonyl)piperazin-1-yl)-2-oxoethyl)-2-(methylamino)propanamide hydrochloride]?
DC50 [1]: 30 to 100 nM; IC50 [2]: 3000 to 30000 nM; remaining binding at 1 µM [3]: < 25%

With CN[C@@H](C)C(=O)N[C@H](C(=O)N1CCN(C(=O)c2c(Cl)c3cc(F)ccc3n2CC(=O)N2CCC[C@H]2COc2cc(CN3CCC(Oc4ccnc5ccsc45)CC3)on2)CC1)C1CCCCC1 [Example 40, (S)-N-((S)-2-(4-(3-chloro-5-fluoro-1-(2-oxo-2-((S)-2-(((5-((4-(thieno[3,2-b]pyridin-7-yloxy)piperidin-1-yl)methyl)isoxazol-3-yl)oxy)methyl)pyrrolidin-1-yl)ethyl)-1H-indole-2-carbonyl)piperazin-1-yl)-1-cyclohexyl-2-oxoethyl)-2-(methylamino)propanamide] as the compound, how does the DC50 [1] read?
The DC50 was 300 to 1000 nM.

And the IC50 [2]?
The IC50 was 3000 to 30000 nM.

What about the remaining binding at 1 µM [3] of the same compound?
The remaining binding at 1 µM was 25 to 50%.

CN[C@@H](C)C(=O)N[C@H](C(=O)N1CCN(C(=O)c2c(Cl)c3cc(F)ccc3n2CC(=O)N(C)CCOCCOCCOCCOc2cc(CN3CCC(Oc4ccnc5ccsc45)CC3)on2)CC1)C1CCCCC1 [Example 34, (S)-N-((S)-2-(4-(3-chloro-5-fluoro-1-(3-methyl-2-oxo-14-((5-((4-(thieno[3,2-b]pyridin-7-yloxy)piperidin-1-yl)methyl)isoxazol-3-yl)oxy)-6,9,12-trioxa-3-azatetradecyl)-1H-indole-2-carbonyl)piperazin-1-yl)-1-cyclohexyl-2-oxoethyl)-2-(methylamino)propanamide] was tested. Which DC50 [1] did it give?
The DC50 was 300 to 1000 nM.

And the IC50 [2]?
The IC50 was 3000 to 30000 nM.

And the remaining binding at 1 µM [3]?
The remaining binding at 1 µM was 25 to 50%.

For CN[C@@H](C)C(=O)N[C@H](C(=O)N1CCN(C(=O)c2c(Cl)c3ccccc3n2CC(=O)N(C)CCOCCOCCOCCOc2cc(CN3CCC(Oc4ccnc5ccsc45)CC3)on2)CC1)C1CCCCC1 [Example 32, (S)-N-((S)-2-(4-(3-chloro-1-(3-methyl-2-oxo-14-((5-((4-(thieno[3,2-b]pyridin-7-yloxy)piperidin-1-yl)methyl)isoxazol-3-yl)oxy)-6,9,12-trioxa-3-azatetradecyl)-1H-indole-2-carbonyl)piperazin-1-yl)-1-cyclohexyl-2-oxoethyl)-2-(methylamino)propanamide], which DC50 [1] is on record?
Its DC50 is 300 to 1000 nM.

And the IC50 [2]?
Its IC50 is 3000 to 30000 nM.

What about the remaining binding at 1 µM [3] of the same compound?
The remaining binding at 1 µM was less than 25%.

What does the source list for CN[C@@H](C)C(=O)N[C@H](C(=O)N1CCN(C(=O)c2c(C)c3cc(F)ccc3n2CC(=O)N2CCC[C@H]2COc2cc(CN3CCC(Oc4ccnc5ccsc45)CC3)on2)CC1)C1CCCCC1 [Example 39, (S)-N-((S)-1-cyclohexyl-2-(4-(5-fluoro-3-methyl-1-(2-oxo-2-((S)-2-(((5-((4-(thieno[3,2-b]pyridin-7-yloxy)piperidin-1-yl)methyl)isoxazol-3-yl)oxy)methyl)pyrrolidin-1-yl)ethyl)-1H-indole-2-carbonyl)piperazin-1-yl)-2-oxoethyl)-2-(methylamino)propanamide]?
DC50 [1]: 100 to 300 nM; IC50 [2]: 3000 to 30000 nM; remaining binding at 1 µM [3]: 25 to 50%

With CN[C@@H](C)C(=O)N[C@H](C(=O)N1CCN(C(=O)c2c(Cl)c3ccccc3n2CC(=O)N2CCC[C@H]2COc2cc(CN3CCC(Oc4ccnc5ccsc45)CC3)on2)CC1)C1CCCCC1 [Example 38, (S)-N-((S)-2-(4-(3-chloro-1-(2-oxo-2-((S)-2-(((5-((4-(thieno[3,2-b]pyridin-7-yloxy)piperidin-1-yl)methyl)isoxazol-3-yl)oxy)methyl)pyrrolidin-1-yl)ethyl)-1H-indole-2-carbonyl)piperazin-1-yl)-1-cyclohexyl-2-oxoethyl)-2-(methylamino)propanamide] as the compound, how does the DC50 [1] read?
Its DC50 is 300 to 1000 nM.

What about the IC50 [2] of the same compound?
Its IC50 is 3000 to 30000 nM.

And the remaining binding at 1 µM [3]?
Its remaining binding at 1 µM is 25 to 50%.

What does the source list for CN[C@@H](C)C(=O)N[C@H](C(=O)N1CCN(C(=O)c2cc3cc(F)c(F)cc3n2CC(=O)N2CCC[C@H]2COc2cc(CN3CCC(Oc4ccnc5ccsc45)CC3)on2)[C@@H](C)C1)C1CCCCC1 [Example 27, (S)-N-((S)-1-Cyclohexyl-2-((S)-4-(5,6-difluoro-1-(2-oxo-2-((S)-2-(((5-((4-(thieno[3,2-b]pyridin-7-yloxy)piperidin-1-yl)methyl)isoxazol-3-yl)oxy)methyl)pyrrolidin-1-yl)ethyl)-1H-indole-2-carbonyl)-3-methylpiperazin-1-yl)-2-oxoethyl)-2-(methylamino)propanamide]?
DC50 [1]: < 30 nM; IC50 [2]: 3000 to 30000 nM; IC50 ([3]; second symbol of cell, read-out: IRAK-M binding inhibition IC50 value): 300 to 1000 nM

How did the DC50 [1] turn out when CN[C@@H](C)C(=O)N[C@H](C(=O)N1CCN(C(=O)c2cc3cc(F)c(F)cc3n2CC(=O)N(C)CCOCCOCCOCCOc2cc(CN3CCC(Oc4ccnc5ccsc45)CC3)on2)CC1)C1CCCCC1 [Example 24, (S)-N-((S)-1-Cyclohexyl-2-(4-(5,6-difluoro-1-(3-methyl-2-oxo-14-((5-((4-(thieno[3,2-b]pyridin-7-yloxy)piperidin-1-yl)methyl)isoxazol-3-yl)oxy)-6,9,12-trioxa-3-azatetradecyl)-1H-indole-2-carbonyl)piperazin-1-yl)-2-oxoethyl)-2-(methylamino)propanamide hydrochloride] was run?
The DC50 was 300 to 1000 nM.

What about the IC50 [2] of the same compound?
The IC50 was 3000 to 30000 nM.

What about the remaining binding at 1 µM [3] of the same compound?
Its remaining binding at 1 µM is less than 25%.

Which DC50 [1] does the source give for CN[C@@H](C)C(=O)N[C@H](C(=O)N1CCN(C(=O)c2c(F)c3cc(F)ccc3n2CC(=O)N2CCC[C@H]2COc2cc(CN3CCC(Oc4ccnc5ccsc45)CC3)on2)CC1)C1CCCCC1 [Example 41, (S)-N-((S)-1-cyclohexyl-2-(4-(3,5-difluoro-1-(2-oxo-2-((S)-2-(((5-((4-(thieno[3,2-b]pyridin-7-yloxy)piperidin-1-yl)methyl)isoxazol-3-yl)oxy)methyl)pyrrolidin-1-yl)ethyl)-1H-indole-2-carbonyl)piperazin-1-yl)-2-oxoethyl)-2-(methylamino)propanamide] here?
Its DC50 is 100 to 300 nM.

And the IC50 [2]?
Its IC50 is 3000 to 30000 nM.

What about the remaining binding at 1 µM [3] of the same compound?
The remaining binding at 1 µM was 25 to 50%.

For CN[C@@H](C)C(=O)N[C@H](C(=O)N1CCN(C(=O)c2c(F)c3ccccc3n2CC(=O)N(C)CCOCCOCCOCCOc2cc(CN3CCC(Oc4ccnc5ccsc45)CC3)on2)CC1)C1CCCCC1 [Example 37, (S)-N-((S)-1-cyclohexyl-2-(4-(3-fluoro-1-(3-methyl-2-oxo-14-((5-((4-(thieno[3,2-b]pyridin-7-yloxy)piperidin-1-yl)methyl)isoxazol-3-yl)oxy)-6,9,12-trioxa-3-azatetradecyl)-1H-indole-2-carbonyl)piperazin-1-yl)-2-oxoethyl)-2-(methylamino)propanamide], which DC50 [1] is on record?
The DC50 was 300 to 1000 nM.

What about the IC50 [2] of the same compound?
Its IC50 is 3000 to 30000 nM.

What about the remaining binding at 1 µM [3] of the same compound?
Its remaining binding at 1 µM is no less than 75%.

What does the source list for CN[C@@H](C)C(=O)N[C@H](C(=O)N1CCN(C(=O)c2cc3cc(F)c(F)cc3n2CC(=O)N2CCOC[C@H]2COc2cc(CN3CCC(Oc4ccnc5ccsc45)CC3)on2)CC1)C1CCCCC1 [Example 44, (S)-N-((S)-1-cyclohexyl-2-(4-(5,6-difluoro-1-(2-oxo-2-((S)-3-(((5-((4-(thieno[3,2-b]pyridin-7-yloxy)piperidin-1-yl)methyl)isoxazol-3-yl)oxy)methyl)morpholino)ethyl)-1H-indole-2-carbonyl)piperazin-1-yl)-2-oxoethyl)-2-(methylamino)propanamide]?
DC50 [1]: 300 to 1000 nM; IC50 [2]: 3000 to 30000 nM; remaining binding at 1 µM [3]: 25 to 50%
